Tests used:
[1] = system: SARS-COV-2; settings: Example 2; 0.35 mg/kg intranasally twice daily, 3-day treatment; versus isotretinoin and liposome-encapsulated isotretinoin; FIG. 3
Excerpt: Golden Syrian hamsters (aged 5-6 weeks old and having an average weight of about 100 g) were obtained from the National Laboratory Animal Center (Taipei, Taiwan). The hamsters were housed in an animal room under specific-pathogen-free (SPF) conditions commonly applied in the art. Furthermore, water and feed were provided ad libitum for all the hamsters.
The hamsters were infected with SARS-COV-2 (obtained from P3 Lab, the Genomics Research Center, Academia Sinica; WuHan wild type) in phosphate buffered saline (PBS) through intranasal inoculation at 1×10^4 plaque-forming units (PFU) on 12:00 PM so as to establish a SARS-COV-2 animal model.
The infected hamsters obtained as mentioned above were divided into the following four groups (n=5 per group): a control group (abbreviated as “Control”), two comparative groups (respectively abbreviated as “Comparative_1” and “Comparative_2”) and one experimental group (abbreviated as “Experimental_1”). […]
After the 3-day treatment, the hamsters were sacrificed, and the lungs thereof were collected for live viral load measurement by TCID50 assay in Vero E6 cells. The virus titer was determined in terms of the 50% tissue culture infectious dose (TCID50) using the Reed-Muench method. […]
The experimental data were analyzed by Tukey's test so as to evaluate the differences between the groups. […]

[2] = target: SARS-COV-2 PLpro (Severe acute respiratory syndrome coronavirus 2, UniProt P0DTD1); assay type: biochemical

CC1=C(/C=C/C(C)=C/C=C/C(C)=C\C(=O)NCCCO[C@@H]2O[C@H](CO)[C@H](O)[C@H](O)[C@H]2O)C(C)(C)CCC1 [Galactose-modified isotretinoin, (2Z,4E,6E,8E)-3,7-dimethyl-N-(3-(((2R,3R,4S,5R,6R)-3,4,5-trihydroxy-6-(hydroxymethyl)tetrahydro-2H-pyran-2-yl)oxy)propyl)-9-(2,6,6-trimethylcyclohex-1-en-1-yl) nona-2,4,6,8-tetraenamide]
TCID50 (lung virus titer) [1]: significantly lower
Inhibition percentage (%) ([2]; Example 1, 50 μM inhibiting agent, PLpro 0.9 μM, preincubation 30 minutes, 30° C., 300 seconds, mean±standard deviation): 34.21 ± 0.17%
inhibiting the enzymatic activity of PLpro, comparison in words ([2]; versus isotretinoin or the individual components, FIG. 2, FIG. 11): more effective than isotretinoin only

From patent publication US20250000987A1, “RETINOIC ACID COMPOUND, PHARMACEUTICAL COMPOSITION THEREOF AND USE THEREOF” (Mastery Biotech CO., LTD., priority 2022, published 2025)
